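Abbreviation: GI50, concentration required for 50% inhibition of growth. TGI denotes the concentration required for complete inhibition of growth.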
Tests used:
Experiment in all cases: NCI-60 cell line screen, 384-well format
UACC-62 melanoma = tested on: UACC-62 melanoma
DU-145 prostate = tested on: DU-145 prostate
MDA-MB-468 breast = tested on: MDA-MB-468 breast
HL-60(TB) leukemia = tested on: HL-60(TB) leukemia
BT-549 breast = tested on: BT-549 breast
NCI-H226 lung = tested on: NCI-H226 lung
SK-OV-3 ovarian = tested on: SK-OV-3 ovarian
UO-31 renal = tested on: UO-31 renal
K-562 leukemia = tested on: K-562 leukemia
SNB-75 CNS = tested on: SNB-75 CNS
OVCAR-4 ovarian = tested on: OVCAR-4 ovarian
SW-620 colon = tested on: SW-620 colon
786-0 renal = tested on: 786-0 renal
UACC-257 melanoma = tested on: UACC-257 melanoma
RXF 393 renal = tested on: RXF 393 renal
NCI-H23 lung = tested on: NCI-H23 lung
T-47D breast = tested on: T-47D breast
HCC-2998 colon = tested on: HCC-2998 colon
NCI-H522 lung = tested on: NCI-H522 lung
COLO 205 colon = tested on: COLO 205 colon
ACHN renal = tested on: ACHN renal
HOP-92 NSCLC = tested on: HOP-92 NSCLC
MDA-MB-435 melanoma = tested on: MDA-MB-435 melanoma
CCRF-CEM leukemia = tested on: CCRF-CEM leukemia
MOLT-4 leukemia = tested on: MOLT-4 leukemia
OVCAR-8 ovarian = tested on: OVCAR-8 ovarian
SK-MEL-5 melanoma = tested on: SK-MEL-5 melanoma
SF-295 CNS = tested on: SF-295 CNS
U251 glioblastoma = tested on: U251 glioblastoma
PC-3 prostate = tested on: PC-3 prostate
HS 578T breast = tested on: HS 578T breast
IGROV1 ovarian = tested on: IGROV1 ovarian
SF-268 CNS = tested on: SF-268 CNS
SK-MEL-28 melanoma = tested on: SK-MEL-28 melanoma
EKVX NSCLC = tested on: EKVX NSCLC
A549 NSCLC = tested on: A549 NSCLC
NCI-H322M lung = tested on: NCI-H322M lung
M14 melanoma = tested on: M14 melanoma
SNB-19 CNS = tested on: SNB-19 CNS
RPMI-8226 leukemia = tested on: RPMI-8226 leukemia
NCI-H460 NSCLC = tested on: NCI-H460 NSCLC
KM12 colon = tested on: KM12 colon
SR leukemia = tested on: SR leukemia
HCT-15 colon = tested on: HCT-15 colon
MCF7 breast = tested on: MCF7 breast
OVCAR-5 ovarian = tested on: OVCAR-5 ovarian
OVCAR-3 ovarian = tested on: OVCAR-3 ovarian
NCI/ADR-RES ovarian = tested on: NCI/ADR-RES ovarian
HT29 colon = tested on: HT29 colon
CAKI-1 renal = tested on: CAKI-1 renal
HOP-62 NSCLC = tested on: HOP-62 NSCLC
MALME-3M melanoma = tested on: MALME-3M melanoma
SF-539 CNS = tested on: SF-539 CNS
MDA-MB-231 breast = tested on: MDA-MB-231 breast
TK-10 renal = tested on: TK-10 renal
SN12C renal = tested on: SN12C renal
LOX IMVI melanoma = tested on: LOX IMVI melanoma
A498 renal = tested on: A498 renal

Question: What does the source list for `CN(C)CC(=O)N1CCC(c2ccc(NC(=O)c3ncc(C#N)[nH]3)c(C3=CCCCC3)c2)CC1`?
Answer: GI50 (UACC-62 melanoma): 1.87 µM; TGI (UACC-62 melanoma): 3.6 µM; GI50 (DU-145 prostate): 10.4 µM; TGI (DU-145 prostate): 22.2 µM; GI50 (MDA-MB-468 breast): 4.3 µM; TGI (MDA-MB-468 breast): 9.35 µM; GI50 (HL-60(TB) leukemia): 2.06 µM; TGI (HL-60(TB) leukemia): 4.49 µM; GI50 (BT-549 breast): 2.4 µM; TGI (BT-549 breast): 9.81 µM; GI50 (NCI-H226 lung): 3.85 µM; TGI (NCI-H226 lung): 14.2 µM; GI50 (SK-OV-3 ovarian): 3.62 µM; TGI (SK-OV-3 ovarian): 13.3 µM; GI50 (UO-31 renal): 12.1 µM; TGI (UO-31 renal): 24.7 µM; GI50 (K-562 leukemia): 2.97 µM; TGI (K-562 leukemia): 11.3 µM; GI50 (SNB-75 CNS): 4.4 µM; TGI (SNB-75 CNS): 15.6 µM; GI50 (OVCAR-4 ovarian): 15.5 µM; TGI (OVCAR-4 ovarian): 28.9 µM; GI50 (SW-620 colon): 10.4 µM; TGI (SW-620 colon): 22.2 µM; GI50 ([…]-0 renal): 1.93 µM; TGI (786-0 renal): 4.41 µM; GI50 (UACC-257 melanoma): 1.98 µM; TGI (UACC-257 melanoma): 3.52 µM; GI50 (RXF 393 renal): 5.03 µM; TGI (RXF 393 renal): 17.2 µM; GI50 (NCI-H23 lung): 2.93 µM; TGI (NCI-H23 lung): 10.7 µM; GI50 (T-47D breast): 12.1 µM; TGI (T-47D breast): 24.5 µM; GI50 (HCC-2998 colon): 2.48 µM; TGI (HCC-2998 colon): 5.33 µM; GI50 (NCI-H522 lung): 10.6 µM; TGI (NCI-H522 lung): 22.4 µM; GI50 (COLO 205 colon): 3.56 µM; TGI (COLO 205 colon): 11.7 µM; GI50 (ACHN renal): 7.59 µM; TGI (ACHN renal): 20 µM; GI50 (HOP-92 NSCLC): 1.43 µM; TGI (HOP-92 NSCLC): 10.8 µM; GI50 (MDA-MB-435 melanoma): 3 µM; TGI (MDA-MB-435 melanoma): 9.64 µM; GI50 (CCRF-CEM leukemia): 3.27 µM; TGI (CCRF-CEM leukemia): 10.7 µM; GI50 (MOLT-4 leukemia): 2.61 µM; TGI (MOLT-4 leukemia): 7.17 µM; GI50 (OVCAR-8 ovarian): 10.6 µM; TGI (OVCAR-8 ovarian): 22.4 µM; GI50 (SK-MEL-5 melanoma): 1.7 µM; TGI (SK-MEL-5 melanoma): 4.34 µM; GI50 (SF-295 CNS): 3.47 µM; TGI (SF-295 CNS): 11.3 µM; GI50 (U251 glioblastoma): 5.48 µM; TGI (U251 glioblastoma): 17.6 µM; GI50 (PC-3 prostate): 5.35 µM; TGI (PC-3 prostate): 17.3 µM; GI50 (HS 578T breast): 2.66 µM; TGI (HS 578T breast): 6.73 µM; GI50 (IGROV1 ovarian): 10.3 µM; TGI (IGROV1 ovarian): 22 µM; GI50 (SF-268 CNS): 6.84 µM; TGI (SF-268 CNS): 19.4 µM; GI50 (SK-MEL-28 melanoma): 1.8 µM; TGI (SK-MEL-28 melanoma): 3.28 µM; GI50 (EKVX NSCLC): 12.5 µM; TGI (EKVX NSCLC): 25 µM; GI50 (A549 NSCLC): 4.25 µM; TGI (A549 NSCLC): 14.8 µM; GI50 (NCI-H322M lung): 7.63 µM; TGI (NCI-H322M lung): 20.1 µM; GI50 (M14 melanoma): 1.89 µM; TGI (M14 melanoma): 3.71 µM; GI50 (SNB-19 CNS): 9.85 µM; TGI (SNB-19 CNS): 21.5 µM; GI50 (RPMI-8226 leukemia): 4.07 µM; TGI (RPMI-8226 leukemia): 15.3 µM; GI50 (NCI-H460 NSCLC): 5.42 µM; TGI (NCI-H460 NSCLC): 16.8 µM; GI50 (KM12 colon): 0.141 µM; TGI (KM12 colon): 3.52 µM; GI50 (SR leukemia): 2.44 µM; TGI (SR leukemia): 5.54 µM; GI50 (HCT-15 colon): 1.82 µM; TGI (HCT-15 colon): 3.58 µM; GI50 (MCF7 breast): 2.72 µM; TGI (MCF7 breast): 10.7 µM; GI50 (OVCAR-5 ovarian): 4.13 µM; TGI (OVCAR-5 ovarian): 13.8 µM; GI50 (OVCAR-3 ovarian): 10.6 µM; TGI (OVCAR-3 ovarian): 22.4 µM; GI50 (NCI/ADR-RES ovarian): 15.7 µM; TGI (NCI/ADR-RES ovarian): 29.1 µM; GI50 (HT29 colon): 1.71 µM; TGI (HT29 colon): 3.26 µM; GI50 (CAKI-1 renal): 4.11 µM; TGI (CAKI-1 renal): 14.9 µM; GI50 (HOP-62 NSCLC): 4.18 µM; TGI (HOP-62 NSCLC): 14.8 µM; GI50 (MALME-3M melanoma): 1.66 µM; TGI (MALME-3M melanoma): 3.57 µM; GI50 (SF-539 CNS): 3.02 µM; TGI (SF-539 CNS): 13 µM; GI50 (MDA-MB-231 breast): 6.96 µM; TGI (MDA-MB-231 breast): 19.2 µM; GI50 (TK-10 renal): 8.66 µM; TGI (TK-10 renal): 20.8 µM; GI50 (SN12C renal): 1.51 µM; TGI (SN12C renal): 13 µM; GI50 (LOX IMVI melanoma): 3.32 µM; TGI (LOX IMVI melanoma): 10.6 µM; GI50 (A498 renal): 2.04 µM; TGI (A498 renal): 3.91 µM

Source: PubChem BioAssay (NCI)
